Data set [1] has as its system BV-2. Nature of the data set: Antiinflammatory activity in mouse BV2 cells assessed as inhibition of sodium nitroprusside-induced nitrite accumulation at 10 to 20 uM after 180 mins by Griess reaction. It is filed as functional, cell-based. (Nitrite, measured by Griess reagent, commonly stands in for NO production.)
Data set [2] in a line: Cytotoxicity against mouse BV2 cells assessed as cell viability at 20 uM by MTT assay. It is filed as cell-based, BV-2. The following applies: read-out: Activity. For orientation: Tetrazolium assays rely on reduction of a dye to a coloured formazan, in cell work by metabolically active cells.
The subject of data set [3] is A549. Description: Cytotoxicity against human A549 cells by SRB assay. It is filed as functional, cell-based. (In general: In SRB staining, fixed cells bind dye roughly in proportion to their protein.)
Data set [4] has as its system SK-OV-3. Description: Cytotoxicity against human SKOV3 cells by SRB assay. The class given is functional, cell-based.
Data set [5] relates to SK-MEL-2. Description: Cytotoxicity against human SK-MEL-2 cells by SRB assay. It is filed as functional, cell-based.
For data set [6], the system named is HCT-15. Nature of the data set: Cytotoxicity against human HCT15 cells by SRB assay. The class given is functional, cell-based.
For data set [7], the system named is BV-2. Nature of the data set: Antiinflammatory activity in mouse BV2 cells assessed as inhibition of LPS-induced NO production treated 30 mins before LPS stimulation measured after 24 hrs by Griess reaction. It is filed as functional, cell-based.
For data set [8], the target named is T1, Nitric oxide synthase, inducible (Mus musculus) (UniProt P29477).
T1 sequence (whole entry): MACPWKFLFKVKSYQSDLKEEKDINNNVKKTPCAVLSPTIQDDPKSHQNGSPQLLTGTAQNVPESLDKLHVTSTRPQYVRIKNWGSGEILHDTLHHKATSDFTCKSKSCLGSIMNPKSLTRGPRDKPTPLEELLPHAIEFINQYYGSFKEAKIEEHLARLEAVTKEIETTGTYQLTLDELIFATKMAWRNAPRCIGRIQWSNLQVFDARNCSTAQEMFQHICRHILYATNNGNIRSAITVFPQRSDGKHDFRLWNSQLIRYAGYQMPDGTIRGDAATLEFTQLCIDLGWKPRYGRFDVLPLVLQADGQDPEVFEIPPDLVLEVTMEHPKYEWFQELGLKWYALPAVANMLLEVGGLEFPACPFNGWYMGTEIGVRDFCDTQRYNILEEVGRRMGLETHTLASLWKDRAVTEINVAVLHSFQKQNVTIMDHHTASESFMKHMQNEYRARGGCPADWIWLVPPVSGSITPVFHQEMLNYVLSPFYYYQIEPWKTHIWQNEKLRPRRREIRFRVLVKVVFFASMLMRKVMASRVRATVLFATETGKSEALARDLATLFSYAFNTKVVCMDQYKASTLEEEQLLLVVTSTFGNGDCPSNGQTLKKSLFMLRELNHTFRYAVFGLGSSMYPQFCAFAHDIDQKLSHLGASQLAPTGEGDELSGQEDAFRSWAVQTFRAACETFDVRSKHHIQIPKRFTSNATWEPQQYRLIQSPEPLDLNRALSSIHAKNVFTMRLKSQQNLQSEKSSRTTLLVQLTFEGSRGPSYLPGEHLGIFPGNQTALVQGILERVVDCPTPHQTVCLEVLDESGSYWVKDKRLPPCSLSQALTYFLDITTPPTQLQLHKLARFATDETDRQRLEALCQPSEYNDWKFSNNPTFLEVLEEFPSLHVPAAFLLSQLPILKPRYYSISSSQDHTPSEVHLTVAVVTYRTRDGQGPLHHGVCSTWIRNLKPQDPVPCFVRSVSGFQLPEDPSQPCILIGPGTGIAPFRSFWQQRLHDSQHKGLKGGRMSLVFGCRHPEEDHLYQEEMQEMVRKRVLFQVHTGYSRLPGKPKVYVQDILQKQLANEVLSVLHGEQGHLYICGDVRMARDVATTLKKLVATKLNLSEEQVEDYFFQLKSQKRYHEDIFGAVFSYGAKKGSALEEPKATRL
Description: Inhibition of iNOS activity in mouse BV2 cells assessed as inhibition of LPS-induced NO production at 20 uM treated 12 hrs before LPS challenge measured after 12 hrs by Griess reaction. The class given is cell-based. The settings on record: BV-2.

Data set [9] has as its system BV-2. Nature of the data set: Antiinflammatory activity in mouse BV2 cells assessed as inhibition of LPS-induced iNOS protein expression at 10 to 20 uM treated 30 mins before LPS stimulation measured after 6 hrs by Western blot analysis. The class given is functional, cell-based.

Calls of active or inactive are those of the source. The calls are words filed in the database; no cut-off is given here.

Among the data in ChEMBL document CHEMBL2086234, “Phenolic constituents from the rhizomes of Acorus gramineus and their biological evaluation on antitumor and anti-inflammatory activities” (Bioorg Med Chem Lett, 2012) are inhibition, viability and IC50 values, retold here.

As to `COc1cc(CCCO)ccc1O[C@H](C)[C@@H](O)c1cc(OC)c(OC)c(OC)c1` [SURINAMENSINOL B], in data set [1], the inhibition result was “Active”. Moreover, the viability at 20 µM in data set [2] came to 76.2%. The IC50 in data set [3] was 5.41 µM; in data set [4], 21.4 µM; in data set [5], 10.4 µM; in data set [6], 18.8 µM; in [7], 8.17 µM.
For `COc1cc(OC)c(OC)cc1/C=C\CO` [ACORAMOL], in [2], the viability at 20 µM is 105%. The IC50 in [3] was greater than 30 µM; in data set [4], greater than 30 µM; in data set [5] it was 25.2 µM; in data set [6] it was greater than 30 µM; in data set [7] it was 126 µM.
Take `COc1cccc2c1C(=O)c1c(O)c3c(c(O)c1C2=O)C[C@@](O)(C(=O)CO)C[C@@H]3O[C@H]1C[C@H](N)[C@H](O)[C@H](C)O1` [DOXORUBICIN]: the IC50 in data set [4] was determined as 0.004 µM; in data set [5], 0.004 µM; in [6], 0.082 µM.
In the case of `O=C(CCO)c1ccc(O)cc1`, the viability at 20 µM in data set [2] is 107%. Also, the IC50 in data set [3] was greater than 30 µM; in data set [4] it was greater than 30 µM; in data set [5], greater than 30 µM; in data set [6], greater than 30 µM; in data set [7] it was 58.1 µM.
For the compound `CNC(=N)NCCC[C@H](N)C(=O)O` [TILARGININE], the viability at 20 µM in [2] is 98.8%. The IC50 in [7] amounted to 18.2 µM.
For the compound `COc1ccc(CCCO)cc1OC`, the viability at 20 µM in [2] turned out to be 103%. Also, the IC50 in [3] was 23.1 µM; in [4], 11.8 µM; in [5], 21.9 µM; in [6], 26.6 µM; in [7] it was greater than 500 µM.
Turning to `COc1cc(/C=C\C(=O)NCCc2ccc(O)cc2)ccc1O`, in [2], the viability at 20 µM came out at 100%. For the same compound, the IC50 in [3] is greater than 30 µM; in data set [4] it was greater than 30 µM; in data set [5] it was greater than 30 µM; in data set [6], greater than 30 µM; in [7], 32.1 µM.
With `COc1cc(CCCO)ccc1O[C@H](C)[C@H](O)c1cc(OC)c(OC)c(OC)c1`, in data set [2], the viability at 20 µM came to 88.8%. In addition, the IC50 in data set [3] came out at 4.17 µM; in data set [4] it was 26.2 µM; in data set [5] it was 14.2 µM; in [6], 24.3 µM; in [7], 17.9 µM. The inhibition result in data set [8] was “Active”.
`COc1cc(CCCO)cc(OC)c1OC`: in data set [2], the viability at 20 µM is 96.3%. Moreover, the IC50 in data set [3] is greater than 30 µM; in data set [4] it was greater than 30 µM; in data set [5] it was greater than 30 µM; in [6] it was greater than 30 µM; in data set [7], 142 µM.
With `COc1cc(OC)c([C@@H]2[C@H](C)[C@@H](C)[C@H]2c2cc(OC)c(OC)cc2OC)cc1OC` (relative stereo) [MAGNOSALIN], the inhibition entry in [1] and in [9] was “Active” each time. Also, the viability at 20 µM in data set [2] was determined as 93.1%. Besides, the IC50 in data set [3] turned out to be 19.6 µM; in [4] it was 27.4 µM; in [5], 8.7 µM; in data set [6] it was 23.1 µM; in data set [7] it was 18.7 µM.
As to `COc1cc(OC)c([C@H]2[C@@H](C)[C@@H](c3cc(OC)c(OC)cc3OC)O[C@@H]2C)cc1OC` (relative stereo), in data set [2], the viability at 20 µM amounted to 101%. For the same compound, the IC50 in data set [3] is greater than 30 µM; in data set [4], 26.4 µM; in [5] it was 11.3 µM; in [6] it was greater than 30 µM; in [7], 59.9 µM.
As for `COc1cc([C@H](O)[C@@H](CO)Oc2c(OC)cc(CCCO)cc2OC)ccc1O` (relative stereo), the viability at 20 µM in [2] was determined as 106%. For the same compound, the IC50 in data set [3] was greater than 30 µM; in data set [4], greater than 30 µM; in data set [5], 29.1 µM; in data set [6], greater than 30 µM; in [7], 37.2 µM.
Consider `COc1cc(/C=C\CO)ccc1O`, for which the viability at 20 µM in data set [2] turned out to be 98.4%. For the same compound, the IC50 turned out to be 11 µM in data set [3]; 13 µM in [4]; 14.7 µM in data set [5]; 20.4 µM in [6]; 14.1 µM in data set [7]. For the same compound, the inhibition entry in data set [8] and in data set [9] was “Active” in each case.
Regarding `COc1cc(/C=C/C(=O)NCCc2ccc(O)cc2)ccc1O` [N-TRANS-FERULOYL TYRAMINE], the inhibition entry in data set [1], in [8] and in data set [9] was “Active” each time. Further, the viability at 20 µM in data set [2] was found to be 97.8%. In addition, the IC50 in [3] was greater than 30 µM; in data set [4] it was greater than 30 µM; in data set [5] it was greater than 30 µM; in data set [6], greater than 30 µM; in data set [7], 17.4 µM.
Consider `COc1cc(/C=C/C(=O)NC[C@@H](O)c2ccc(O)cc2)ccc1O`, for which the viability at 20 µM in [2] worked out at 98.3%. Besides, the IC50 in data set [3] was greater than 30 µM; in data set [4], greater than 30 µM; in data set [5], greater than 30 µM; in data set [6], greater than 30 µM; in data set [7] it was 54.8 µM.

For orientation: IC50 means the midpoint of a concentration-inhibition curve.
